# Data: BindingDB's records for doi:10.1016/s0960-894x(01)00543-1 (Harvard Medical School, 2001)
# Assay: Binding affinity towards Opioid receptor delta 1 in guinea pig brain membranes using [3H]naltrindole as radioligand
row,SMILES,Ki [nM]
1,Oc1ccc2c(c1)C[C@@H]1[C@@H]3CCCC[C@]23CCN1C/C=C/I,27
2,"Oc1ccc2c(c1)C[C@@H]1[C@@H]3CCCCC23CCN1CCC(O)c1ccco1 (stereo partly drawn) [1-(2-furyl)-3-[5-hydroxy-(1R,9R,10R)-17-azatetracyclo[7.5.3.01,10.02,7]heptadeca-2(7),3,5-trien-17-yl]-1-propanol]",29
3,"O=C(CCN1CCC23CCCC[C@H]2[C@H]1Cc1cc(O)ccc13)c1ccco1 [1-(2-furyl)-3-[5-hydroxy-(1R,9R,10R)-17-azatetracyclo[7.5.3.01,10.02,7]heptadeca-2(7),3,5-trien-17-yl]-1-propanone]",42
4,"N#CCCN1CCC23CCCC[C@H]2[C@H]1Cc1cc(O)ccc13 [2-[5-hydroxy-(1R,9R,10R)-17-azatetracyclo[7.5.3.01,10.02,7]heptadeca-2(7),3,5-trien-17-yl]ethyl cyanide]",2.6
5,"O=C(CCN1CCC23CCCC[C@H]2[C@H]1Cc1cc(O)ccc13)c1cccs1 [3-[5-hydroxy-(1R,9R,10R)-17-azatetracyclo[7.5.3.01,10.02,7]heptadeca-2(7),3,5-trien-17-yl]-1-(2-thienyl)-1-propanone]",10
6,"O=C(CCN1CCC23CCCC[C@H]2[C@H]1Cc1cc(O)ccc13)c1ccccc1 [3-[5-hydroxy-(1R,9R,10R)-17-azatetracyclo[7.5.3.01,10.02,7]heptadeca-2(7),3,5-trien-17-yl]-1-phenyl-1-propanone]",23
7,"N#CCCCN1CCC23CCCC[C@H]2[C@H]1Cc1cc(O)ccc13 [3-[5-hydroxy-(1R,9R,10R)-17-azatetracyclo[7.5.3.01,10.02,7]heptadeca-2(7),3,5-trien-17-yl]propyl cyanide]",3.1
8,"CCOCCN1CCC23CCCC[C@H]2[C@H]1Cc1cc(O)ccc13 [17-(2-ethoxyethyl)-(1R,9R,10R)-17-azatetracyclo[7.5.3.01,10.02,7]heptadeca-2(7),3,5-trien-5-ol]",5.6
9,"Oc1ccc2c(c1)C[C@@H]1[C@@H]3CCCCC23CCN1CCC(F)(F)F [17-(3,3,3-trifluoropropyl)-(1R,9R,10R)-17-azatetracyclo[7.5.3.01,10.02,7]heptadeca-2(7),3,5-trien-5-ol]",27
10,"Oc1ccc2c(c1)C[C@@H]1[C@@H]3CCCCC23CCN1CCCF [17-(3-fluoropropyl)-(1R,9R,10R)-17-azatetracyclo[7.5.3.01,10.02,7]heptadeca-2(7),3,5-trien-5-ol]",0.85
11,"Oc1ccc2c(c1)C[C@@H]1[C@@H]3CCCCC23CCN1CC1CCCCC1 [17-(N-cyclohexylmethyl)-(1R,9R,10R)-17-azatetracyclo[7.5.3.01,10.02,7]heptadeca-2(7),3,5-trien-5-ol]",69
12,"C=CCN1CCC23CCCC[C@H]2[C@H]1Cc1cc(O)ccc13 [17-allyl-(1R,9R,10R)-17-azatetracyclo[7.5.3.01,10.02,7]heptadeca-2(7),3,5-trien-5-ol]",4.1
13,"Oc1ccc2c(c1)C[C@@H]1[C@@H]3CCCCC23CCN1Cc1ccccc1 [17-benzyl-(1R,9R,10R)-17-azatetracyclo[7.5.3.01,10.02,7]heptadeca-2(7),3,5-trien-5-ol]",420
14,"Oc1ccc2c(c1)C[C@@H]1[C@@H]3CCCCC23CCN1CC1CCCC1 [17-cyclopentylmethyl-17-azatetracyclo[7.5.3.01,10.02,7]heptadeca-2(7),3,5-trien-5-ol]",6.9
15,"Oc1ccc2c(c1)C[C@@H]1[C@@H]3CCCCC23CCN1CCc1ccccc1 [17-phenethyl-(1R,9R,10R)-17-azatetracyclo[7.5.3.01,10.02,7]heptadeca-2(7),3,5-trien-5-ol]",3.1
16,CC(C)CN1CCC23CCCC[C@H]2[C@H]1Cc1cc(O)ccc13 [MCL-108],5.6
17,COCCN1CCC23CCCC[C@H]2[C@H]1Cc1cc(O)ccc13 [MCL-110],0.54
18,Oc1ccc2c(c1)C[C@@H]1[C@@H]3CCCCC23CCN1Cc1ccco1 [MCL-119],8.5
19,Oc1ccc2c(c1)C[C@@H]1[C@@H]3CCCCC23CCN1CCC(O)c1ccccc1 (stereo partly specified) [MCL-121],130
20,Oc1ccc2c(c1)C[C@@H]1[C@@H]3CCCCC23CCN1CCC(O)c1cccs1 (stereo partly specified) [MCL-122],110
21,Oc1ccc2c(c1)C[C@@H]1[C@@H]3CCCCC23CCN1CCOc1ccccc1 [MCL-127],33
